Results taken from paper PMC6934184, “Selective DNA-PKcs inhibition extends the therapeutic index of localized radiotherapy and chemotherapy” (The Journal of Clinical Investigation, 2019).

Molecular target: T1, GRK6 (Homo sapiens, UniProt P43250)
T1 construct: purchased Thermo Fisher Scientific (Life Technologies) SelectScreen
Assay: SelectScreen Z'LYTE
Format: biochemical
Summary of the method: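 Compound tested in SelectScreen activity assays, Z'LYTE for CSF1R, CDK1/cyclin B and MAP2K6 and Adapta for CAMK1. ATP for CAMK1 was listed as 10, and Km app was used for CSF1R. Results are expressed in percent.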

T1 sequence (P43250 whole entry): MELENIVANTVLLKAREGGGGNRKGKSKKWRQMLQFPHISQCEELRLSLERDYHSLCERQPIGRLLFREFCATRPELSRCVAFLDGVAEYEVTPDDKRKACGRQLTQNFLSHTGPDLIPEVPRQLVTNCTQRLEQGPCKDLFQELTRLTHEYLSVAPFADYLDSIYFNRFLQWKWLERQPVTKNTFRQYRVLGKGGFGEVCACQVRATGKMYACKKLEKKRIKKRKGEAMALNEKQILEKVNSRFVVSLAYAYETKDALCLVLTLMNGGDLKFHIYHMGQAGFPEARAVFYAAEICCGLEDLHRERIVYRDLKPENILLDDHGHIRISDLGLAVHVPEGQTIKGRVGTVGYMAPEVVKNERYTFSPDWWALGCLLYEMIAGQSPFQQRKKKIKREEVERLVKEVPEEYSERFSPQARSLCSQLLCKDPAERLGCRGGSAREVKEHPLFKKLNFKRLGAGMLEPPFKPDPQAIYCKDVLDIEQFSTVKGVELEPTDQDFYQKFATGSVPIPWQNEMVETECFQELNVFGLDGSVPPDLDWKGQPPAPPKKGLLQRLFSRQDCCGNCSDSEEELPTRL

Compound: CN(C(=O)CN1CCOCC1)c1ccc2sc3c(-c4cccc5c(=O)cc(N6CC7CCC(C6)O7)oc45)cccc3c2c1 [NU5455]
- inhibition at 1 µM: 3.7%
